Patent publication US8211883B2, “Topical delivery of phthalocyanines” (priority 2004, dated 2012)
Marks after values point to notes of the source that are not given here.

Legend:
[1] = test system: Chinese hamster V79-379 lung fibroblasts; experiment: Uptake of phthalocyanines into V79 cells; conditions: for n Moles/10^6 Cells/μM (composite uptake value): V79 cells, average of all data, asterisk: listed value is for 1 μM, average would be higher
Protocol: Chinese hamster V79-379 lung fibroblasts were grown in monolayer culture in McCoy's 5A medium (Gibco Laboratories, Grand Island, N.Y.) augmented with 10% calf serum and buffered with 20 mM HEPES (pH 7.4).
Total uptake was determined by scraping the phthalocyanine-treated monolayer, collecting the cells on a glass-fiber filter, and extracting the phthalocyanine in ethanol, as previously described by Ramakrishnan, et al., 1989. (Ramakrishnan, N., M. E. Clay, M. F. Horng, A. R. Antunez, & H. H. Evans, “DNA Lesions and DNA Degradation in Mouse Lymphoma L5178Y Cells After Photodynamic Treatment Sensitized by Chloroaluminum Phthalocyanine”, Photochem. Photobiol, in press, 1989). The amount of drug was determined by absorption at 674 nm and expressed relative to the number of cells, as measured in a Coulter cell counter on an aliquot of the cell population. Controls included cells not treated with drug, medium alone, and drug-containing medium without cells.
The cells were treated with 1 μM AlPcCl (from Eastman Kodak, Rochester, N.Y.) or with phthalocyanine compositions I-VI (0.5-1.0 μM final concentration in the medium) for 18 hours by adding the appropriate volume of a 1.0 mM stock solution in dimethylformamide (DMF) to the culture medium. The growth medium was replaced with 4 mL Hank's balanced salt solution (HBSS), and the cells were irradiated. The light source was a 500 W tungsten-halogen lamp located approximately 29 inches below the surface of a glass exposure tray. The visible light administered to the cells was filtered to allow passage of only that portion of the visible spectrum above 600 nm (Lee Primary red filter No. 106, Vincent Lighting, Cleveland, Ohio). The fluence rate was approximately 0.074 kJ/m^2/s at the level of the cell monolayer.
V79 cells Chinese hamster lung fibroblasts were cultured using the cell culture methods described above. The phthalocyanines listed in table 2 were added to the cultures typically at concentrations of 1 μM, 2 μM, and/or 4 μM and incubated for 18 hours, after which aliquots of the cells were counted and other aliquots were collected on a glass fiber filter. When the filters were dry, the phthalocyanines were extracted into ethanol and the absorption determined at the peak wavelength, usually 668 nm. Values were converted to nmoles taken up by 10^6 cells, using an extinction coefficient of 2.93×10^5.

[2] = test system: Chinese hamster V79-379 lung fibroblasts; experiment: Clonogenic cell survival of V79 cells after photodynamic treatment; format: cell-based; conditions: for LD 90 (light dosage that kills 90% of cells): 0.5 μM, 18 hours, 675 nm red light, VII# preplated data only, XXI* not totally soluble at 0.5 mM
Protocol: Cells were irradiated at a density of approximately 2×10^6 per 25 cm^2 flask. Immediately after irradiation, the cell monolayer was treated with trypsin, and appropriate aliquots were plated in triplicate to give 100 to 200 colonies in each 10-cm Petri dish. Cell survival was determined by the ability of the cells to form colonies containing at least 50 cells. The response of cells treated with 1 μM AlPcCl and light was compared in each experiment.
Photocytotoxicity of the phthalocyanines compounds I to VI was also assessed by clonogenic assay (Table 1, FIG. 1). In all experiments, 1 μM AlPcCl was included for comparison purposes. From the survival curves (FIG. 1), the fluence reducing the cell survival to 10% (F10) was obtained. The ratio of the F10 for AlPcCl and the F10 for the test compound is recorded in Table 1. Compounds I and II appear to be nearly as efficient photosensitizers as AlPcCl, while compound IV (assayed at half the concentration) was almost twice as efficient as the standard AlPcCl. […] However, in spite of the low efficiency of compound V in inhibiting cell growth, survival measurements were made for this compound, because it was taken up into V79 cells somewhat more efficiently than compounds III and VI.
In order to take differences in cellular uptake into consideration in the assessment of the relative efficiency of these phthalocyanines as photosensitizers of V79 cells, the survival data were replotted against the product of intracellular phthalocyanine concentration and light fluence (FIG. 2). From these curves, the product of intracellular concentration and light fluence reducing survival to 10% (CF10) was obtained, and comparisons of the values for AlPcCl and the test compounds are recorded in Table 1. By this and the other criteria, compound IV appears to be the most efficient photosensitizer. However, when consideration is given to the lesser cell uptake of compound V, it appears to be about as strong a photosensitizer as compound IV.
Using the cell culture methods described above, V79 cells Chinese hamster lung fibroblasts were treated with either 0.5 or 1.0 μM of the phthalocyanines listed in Table 3. About 18 hours thereafter, the cells were irradiated with increasing doses of 675 nm broad band red light from a 500 W tungsten-halogen lamp fitted with a 600 nm high pass filter, to determine the light dosage that would kill 90% of the phthalocyanine treated cells. Where 90% of the cells were not killed, the maximum percent of cells killed were determined, (expressed as % survival) and the related light dosage recorded.

L5178Y cells = experiment: Induction of apoptosis (DNA ladder) in L5178Y cells after PDT; format: cell-based, Mouse; conditions: for C × F Ld90, Minimum Demonstrated Condition to Induce Apoptosis: product of concentration and fluence
[3] = test system: RIF-1 (radiation-induced fibrosarcoma) tumors; experiment: PDT of RIF-1 implanted tumors; format: in vivo, C3H/HeN mice; parameters: key to Tumor Responses at 24 hours: complete: no evidence of any tumor mass in any animal; only the scar from the photodynamic therapy was evident.; near complete: evidence of any tumor mass in four or five animals; only some tumor mass in one or two animals.; substantial: a significant tumor shrinkage occurred in all animals. In some animals the tumor response was complete, yet in others the response was not complete.; moderate: some tumor shrinkage was evident in some animals. In animals with some tumor shrinkage, scar formation was evident.; slight: some tumor decrease occurred in one or two mice; conditions: 675 nm; for Doubling Time of Initial Tumor Volume after PDT: controls 4 days
Protocol: The relative effectiveness at reducing tumor volume of selected phthalocyanine compounds at a given dosage was compared in vivo. RIF-1, i.e., radiation-induced fibrosarcoma, tumors were implanted into the backs of C3H/HeN mice. One tumor was implanted per mouse. Each of the phthalocyanine compounds listed in Table 7 was sonicated and vortexed in corn oil to produce a suspension. When the tumors reached […] in diameter and 2-3 mm in thickness, each mouse received 1 mg/kg in 0.1 mL of the corn oil, of the phthalocyanine suspension. For comparison, select mice received a conventional photosensitizer; either 5 mg/kg of chloroaluminum phthalocyanine tetrasulfonate, herein also referred to as “AlPcTS” in phosphate buffered saline or 5 mg/kg of Photofrin®-II in 5% dextrose. Twenty-four hours after the photosensitizers were administered, the tumors were irradiated with visible radiation delivered by an argon-pumped dye laser. The mice that received a phthalocyanine photosensitizer received light having a wavelength of 675 nm and the mice that received the Photofrin® II photosensitizer received light having a wavelength of 630 nm. Each tumor received 135 J/cm^2 of radiation. Tumor size was measured every day using calipers. The initial tumor volume was 50±10 mm^3. Tumor volume was calculated according to the hemiellipsoid model by the formula: V=½(4π)/3×(½×(w/2))×h
• complete—no evidence of any tumor mass in any animal; only the scar from the photodynamic therapy was evident. • near complete—evidence of […] in four or five animals; only some tumor mass in one or two animals. • substantial—a significant tumor shrinkage occurred in all animals. In some animals the tumor response was complete, yet in others the response was not complete. • moderate—some tumor shrinkage was evident in some animals. In animals with some tumor shrinkage, scar formation was evident. • slight—some tumor decrease occurred in one or two mice.

[4] = test system: Mouse lymphoma L5178y-R cells; experiment: Clonogenic cell survival of PDT-treated LY-R cells; format: cell-based; conditions: 0.5 μM
Protocol: Mouse lymphoma L5178y-R (hereinafter also referred to as “LY-R”) cells were grown in suspension culture as described in Ramakrishnan N., Oleinick, N. L. Clay, M. E., Homg, M. F., Antunez, A. R., and Evans H. H., Photochem. Photobiol. 50, 373-378, 1989 and Agarwal, M. L., Clay, M. E., Harvey, E. J., Evans, H. H., Antunez, A. R., and Oleinick, N. L., Cancer Res., 51, 5993-5996, 1991.
The cells were used while in exponential growth. Stock solutions of either 0.5 or 1 mM of PcIV, PcXII, PcX, PcXVIII were prepared in dimethylformamide unless otherwise indicated and added to the 10 mL medium at a rate of 1 μL per mL. After allowing 18 hours for uptake of the phthalocyanine into the cells, the flasks containing the cultures were placed on a glass exposure tray above a 500-W tungsten-halogen lamp. The exposure tray was fitted with a 600-nm high-pass filter. Flasks were exposed to various fluences of red light (up to 30 kJ/m^2) at a fluence rate of approximately 74 W/m^2). After irradiation, the cells were collected by centrifugation.
For measurement of clonogenic cell survival, aliquots were plated in medium containing soft agar as described in Ramakrishnan N., Oleinick, N. L. Clay, M. E., Homg, M. F., Antunez, A. R., and Evans H. H., Photochem. Photobiol. 50, 373-378, 1989. The aliquots were plated in sufficient numbers to produce 50-200 colonies. The dishes were kept in an incubator at 37° C. in an atmosphere of 5% CO2 and 95% air for 10-14 days to allow viable cells to form colonies. Colonies were counted by eye. Controls treated with the phthalocyanine alone had plating efficiencies of about […]. The plating efficiencies of the treated cells are normalized to the plating efficiencies of control cells in each experiment. For measurement of the induction of apoptosis, DNA was isolated from the treated and control cells 2 hours after photodynamic therapy, subjected to electrophoresis on 1.5% agarose, stained with ethidium bromide, and visualized by UV transillumination, as described in Agarwal et al. The results are shown in Tables 4, 5 and 6 and in FIG. 3.

[5] = 1 mg/kg in corn oil, 135 J/cm^2, light 24 h after dosing
[6] = 1 mg/kg in corn oil, 135 J/cm^2
[7] = 5 mg/kg in phosphate buffered saline, 135 J/cm^2

C[Si](C)(CCCCNS(C)(=O)=O)O[Si]1(O[Si](C)(C)CCCCNS(C)(=O)=O)n2c3c4ccccc4c2N=C2N=C(N=c4c5ccccc5c(n41)=NC1=NC(=N3)c3ccccc31)c1ccccc12 [Compound VIII, SiPc[OSi(CH3)2(CH2)4NHSO2CH3]2]
Uptake Into V79 Cells, 1 μM ([1]; 18 hours): 0.1 ± 0.04 n Moles/10^6 cells | Uptake Into V79 Cells, 4 μM ([1]; 18 hours): 0.8 ± 0.01 n Moles/10^6 cells | n Moles/10^6 Cells/μM (composite uptake value) [1]: 0.2 n Moles/10^6 Cells/μM | Maximum Effect (% survival at kj/m^2) ([2]; 1 μM, at 30 kj/m^2): 94% at 30 | induction of apoptosis (L5178Y cells; 1 μM at a fluence of 30 kJ/m^2): did not induce apoptosis | Tumor Responses at 24 hours [3, 5]: slight | Doubling Time of Initial Tumor Volume after PDT [3, 6]: 4 days

CCN(CCC[Si](C)(C)O[Si]1(O)n2c3c4ccccc4c2N=C2N=C(N=c4c5ccccc5c(n41)=NC1=NC(=N3)c3ccccc31)c1ccccc12)CCN(C)C (stereo not drawn) [Compound X, HOSiPcOSi(CH3)2(CH2)3N(CH2CH3)(CH2)2N(CH3)2]
Uptake Into V79 Cells, 1 μM ([1]; 18 hours): 0.6 ± 0.2 n Moles/10^6 cells | Uptake Into V79 Cells, 4 μM ([1]; 18 hours): 3.3 ± 1.4 n Moles/10^6 cells | n Moles/10^6 Cells/μM (composite uptake value) [1]: 0.7 n Moles/10^6 Cells/μM | LD 90 (light dosage that kills 90% of cells) [2]: 7 kj/m^2 | Ld50 (fluence that reduces cell survival to 50%) [4]: 2.38 kJ/m^2 | Ld90 (fluence that reduces cell survival to 10%) [4]: 4.19 kJ/m^2 | activity relative to PcXII ([4]; from LD50/LD90 fluences): 44% | normalized plating efficiency, AVG. ([4]; light dose 0 kJ/m^2): 100 | normalized plating efficiency, AVG. ([4]; light dose 2 kJ/m^2): 71.8 | normalized plating efficiency, AVG. ([4]; light dose 3 kJ/m^2): 30.1 | normalized plating efficiency, AVG. ([4]; light dose 4 kJ/m^2): 20.5 | normalized plating efficiency, AVG. ([4]; light dose 5 kJ/m^2): 0.43 | normalized plating efficiency, AVG. ([4]; light dose 6 kJ/m^2): 0.031 | normalized plating efficiency, AVG. ([4]; light dose 8 kJ/m^2): 0.00058 | Fluence, Minimum Demonstrated Condition to Induce Apoptosis (L5178Y cells; 0.5 μM): 6.0 kJ/m^2 | C × F Ld90, Minimum Demonstrated Condition to Induce Apoptosis (L5178Y cells; 0.5 μM): 3.0 kJ/m^2 | Fluence, Minimum Demonstrated Condition to Induce Apoptosis (L5178Y cells; 1.0 μM): 3.0 kJ/m^2 | C × F Ld90, Minimum Demonstrated Condition to Induce Apoptosis (L5178Y cells; 1.0 μM): 3.0 kJ/m^2

CN1CCN(CCC[Si](C)(C)O[Si]2(O)n3c4c5ccccc5c3N=C3N=C(N=c5c6ccccc6c(n52)=NC2=NC(=N4)c4ccccc42)c2ccccc23)CC1 (stereo not drawn) [Compound XXVIII, HOSiPcOSi(CH3)2(CH2)3NC4H8NCH3]
Uptake Into V79 Cells, 1 μM ([1]; 18 hours): 1.2 ± 0.2 n Moles/10^6 cells | Uptake Into V79 Cells, 2 μM ([1]; 2 μM, 18 hours): 3.6 ± 1.0 n Moles/10^6 cells | Uptake Into V79 Cells, 4 μM ([1]; 18 hours): 11.4 ± 0.05 n Moles/10^6 cells | n Moles/10^6 Cells/μM (composite uptake value) [1]: 1.2* n Moles/10^6 Cells/μM | LD 90 (light dosage that kills 90% of cells) [2]: 1.8 kj/m^2 | Fluence, Minimum Demonstrated Condition to Induce Apoptosis (L5178Y cells; 0.3 μM): 3.0 kJ/m^2 | C × F Ld90, Minimum Demonstrated Condition to Induce Apoptosis (L5178Y cells; 0.3 μM): 0.9 kJ/m^2 | Tumor Responses at 24 hours [3, 5]: complete | Doubling Time of Initial Tumor Volume after PDT [3, 6]: 24 days

chloroaluminum phthalocyanine tetrasulfonate [AlPcTS, reference compound]
Tumor Responses at 24 hours [3, 7]: substantial | Doubling Time of Initial Tumor Volume after PDT [3, 7]: 7 days
